Molecules are shown by their SMILES.

For this assay, the system named is C. neoformans ATCC 56991. The assay is described as follows: Checkerboard MIC assay, FICI. Type of assay: cell-based, Cryptococcus neoformans. As to conditions: combination with Compound 1. The text has this: The following assay was used to determine the minimum inhibitory concentration (MIC) and fractional inhibitory concentration index (FICI) for combinations of an antifungal agent and a glycopeptide antibacterial agent. This assay and methods for calculating FICI are well known in the art. See, for example, Eliopoulos, E. G. and R. Moellering, Jr. “Antimicrobial Combinations” in Antibiotics in Laboratory Medicine, edited by V. Lorian, 4th Ed., Williams & Wilkins, Baltimore, MD, pp. 330-396 (1996); […] et al., Antimicrobial Agents and Chemotherapy 47(4):1416-1418 (2003); or […] et al., Antimicrobial Agents and Chemotherapy 46(10):3323-3326 (2002). […] The MIC of the glycopeptide antibacterial agent determined from this experiment was used in FIC calculations. […]

For the molecule `C[C@@H]1[C@H](O)[C@@H](C)/C=C/C=C/C=C/C=C/C=C/C=C/C=C/[C@H](O[C@@H]2O[C@H](C)[C@@H](O)[C@H](N)[C@@H]2O)C[C@@H]2O[C@](O)(C[C@@H](O)C[C@@H](O)[C@H](O)CC[C@@H](O)C[C@@H](O)CC(=O)O[C@H]1C)C[C@H](O)[C@H]2C(=O)O` [Amphotericin B], the FICI turned out to be 0.25.
`C[C@@H]1[C@H](O)[C@@H](C)/C=C/C=C/CC/C=C/C=C/C=C/C=C/C(O[C@H]2O[C@H](C)[C@@H](O)[C@H](N)[C@@H]2O)CC2O[C@](O)(CC(O)C(O)CCC(O)CC(O)CC(O)CC(=O)O[C@H]1C)CC(O)C2C(=O)O` (some centres unmarked) [Nystatin]: the FICI came to 0.5.
